How the values were obtained:
[1] = target: T1, CETP (Macaca fascicularis, UniProt P47896); experiment: Plasma CETP activity in cynomolgus monkeys on chow or high carbohydrate diet; format: in vivo; conditions: for CETP activity % Δ vs day 0, Day 7, Chow / CETP activity % Δ vs day 0, Day 14, Chow: chow diet; for CETP activity % Δ vs day 0, Day 7, Chow / CETP activity % Δ vs day 0, Day 7, High CHO: day 7, Example 8 3 mg/kg; for CETP activity % Δ vs day 0, Day 7, Chow / CETP activity % Δ vs day 0, Day 14, Chow / CETP activity % Δ vs day 0, Day 7, High CHO / CETP activity % Δ vs day 0, Day 14, High CHO: Anacetrapib 10 mg/kg, mean ± SD; for CETP activity % Δ vs day 0, Day 14, Chow / CETP activity % Δ vs day 0, Day 14, High CHO: day 14, Example 8 3 mg/kg; for CETP activity % Δ vs day 0, Day 7, High CHO / CETP activity % Δ vs day 0, Day 14, High CHO: high carbohydrate diet
T1 construct: from tissue; host or cells: EDTA plasma of cynomolgus monkeys dosed orally
T1 sequence (P47896 18-493): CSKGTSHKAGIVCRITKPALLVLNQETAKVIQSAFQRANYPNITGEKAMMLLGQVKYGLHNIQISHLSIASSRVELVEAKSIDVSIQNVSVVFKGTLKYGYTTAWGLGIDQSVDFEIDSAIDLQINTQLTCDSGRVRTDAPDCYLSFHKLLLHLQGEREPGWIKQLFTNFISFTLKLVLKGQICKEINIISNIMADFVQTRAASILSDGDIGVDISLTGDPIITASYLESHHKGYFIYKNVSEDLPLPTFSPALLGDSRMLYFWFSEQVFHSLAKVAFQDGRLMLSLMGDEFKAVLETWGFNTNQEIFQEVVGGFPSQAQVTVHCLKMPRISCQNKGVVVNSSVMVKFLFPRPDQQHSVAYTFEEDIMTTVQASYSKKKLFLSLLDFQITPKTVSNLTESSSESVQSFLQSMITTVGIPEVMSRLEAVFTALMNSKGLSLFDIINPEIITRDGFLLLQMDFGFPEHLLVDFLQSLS
Description: Normal male cynomolgus monkeys (n=17) weighing between 8-14 kg are placed on a high-carbohydrate, low-fat diet. The caloric composition of the diet is approximately 13.4% protein, 79.1% carbohydrate (sugar to starch ratio 50:50) and 7.5% fat. Calories are derived from standard monkey chow (LabDiet® 5047, PMI, Richmond, Ind. or LabDiet® 5000, Balanced Fiber diet, PMI, Richmond, Ind.) in quantities necessary to meet the protein and fat requirements, with the remaining calories provided by sugar-sweetened cereals, candies, and fruit (banana, orange, cantaloupe, honeydew, pineapple). The high-carbohydrate (CHO) diet will be fed for 18 days (4 days of pre-drug diet, 14 days of drug treatment), after which time they will return to their regular chow diets for a 14 day washout period followed by a second 14 day dosing phase of the study (normal diet).
Compound of Example 8 is dissolved at 30 mg/mL in 1M NaOH+ethanol:maisoel glyceride:propylene glycol:cremophor RH40 (10:36:9:45) and diluted 1:10 in ddH2O. […] The formulations are prepared each day (weekend doses are prepared on Friday) and stored stirring and protected from light at room temperature until dosing. Artificial flavor and color will be added to the dose when prepared.
The animals will ingest the compounds (1 mL/kg) voluntarily from a plastic syringe offered at their home cage at approximately 8 am daily. Animals will be fed 60 minutes after the dose is administered.
Blood collection will take place weekly during each dosing phase. Animals are fasted overnight (approximately 16 hours) prior to blood collection. Blood samples are collected from a saphenous vein via needle and syringe and put into 2 mL EDTA-coated tubes that are immediately placed on ice until centrifugation. Samples are centrifuged at 3,000 rpm for 20 minutes. The plasma is collected, divided into aliquots (listed below), and stored at −70° C. until analysis.

[2] = test system: CETP; experiment: Ex vivo CETP activity in plasma of hamsters (saline or Triton WR-1339 treated); conditions: hamster; for Inhibition of CETP activity, lower dose group, Triton WR-1339 group / Inhibition of CETP activity, lower dose group, saline group: oral gavage: Torcetrapib 5 mg/kg, Anacetrapib 1.5 mg/kg, Example 49 1.5 mg/kg, Example 8 0.75 mg/kg; for Inhibition of CETP activity, lower dose group, Triton WR-1339 group / Inhibition of CETP activity, higher dose group, Triton WR-1339 group: Triton WR-1339 100 mg/kg i.v.; for Inhibition of CETP activity, lower dose group, Triton WR-1339 group: not significant vs vehicle; for Inhibition of CETP activity, lower dose group, saline group / Inhibition of CETP activity, higher dose group, saline group: saline i.v.; for Inhibition of CETP activity, higher dose group, Triton WR-1339 group / Inhibition of CETP activity, higher dose group, saline group: oral gavage: Torcetrapib 10 mg/kg, Anacetrapib 3 mg/kg, Example 49 3 mg/kg, Example 8 1.5 mg/kg
Procedure: Nine- to ten-week-old, male golden Syrian hamsters were purchased from Japan SLC Inc. (Shizuoka, Japan). Animals underwent a more than 1-week acclimation period under the following conditions: 8:00/20:00 light/dark cycle, room temperature 23±2° C. […] During this time, animals received filtered (0.5 μm) water and a standard chow diet ad libitum.
Whole blood samples were collected using a heparin-washed syringe (Heparin sodium injection “Ajinomoto”; Ajinomoto, Tokyo, Japan) from the abdominal vein by venipuncture under isoflurane (Abbott Japan Co. Ltd.) inhalant anesthesia. After centrifugation at 15,000 rpm for 10 min at 4° C., heparinized plasma was prepared and stored at −80° C. until use.
CETP activity (RFU/min) was defined as the change in fluorescence intensity from 30 to 90 min.
The effect of an acute increase of plasma triglycerides in vivo (acute increase in triglyceride-rich particles) on the ability of Torcetrapib to alter plasma CETP activity, triglyceride and total cholesterol levels was investigated. Torcetrapib at doses of 3, 10 or 30 mg/kg or vehicle was administered once by gavage to hamsters fed a standard chow diet.
Compound or vehicle was administered once by gavage to hamsters fed a standard chow diet.

CETP activity % Δ vs day 0, Day 7, Chow [1] [%]	CETP activity % Δ vs day 0, Day 14, Chow [1] [%]	CETP activity % Δ vs day 0, Day 7, High CHO [1] [%]	CETP activity % Δ vs day 0, Day 14, High CHO [1] [%]	CETP inhibitory activity in monkeys with diet-induced hypertriglyceridemia ([1]; TG>500 mg/dL)	Compound	Inhibition of CETP activity, lower dose group, Triton WR-1339 group [2] [%]	Inhibition of CETP activity, lower dose group, saline group [2] [%]	Inhibition of CETP activity, higher dose group, Triton WR-1339 group [2] [%]	Inhibition of CETP activity, higher dose group, saline group [2] [%]
−62 ± 15	−59 ± 19	−33 ± 23	−24 ± 22		COc1cc(F)c(C(C)C)cc1-c1ccc(C(F)(F)F)cc1CN1C(=O)O[C@H](c2cc(C(F)(F)F)cc(C(F)(F)F)c2)[C@@H]1C [Anacetrapib, reference compound]	8	56	13	78
−78 ± 7	−73 ± 9	−72 ± 7	−66 ± 10	retains CEPT inhibitory activity	CC[C@@H]1C[C@H](N(Cc2cc(C(F)(F)F)cc(C(F)(F)F)c2)c2ncc(-c3cnn(C)c3)cn2)C[C@H](CC)N1C(=O)O[C@H]1CC[C@H](C(=O)O)CC1 [Example 8]	20	72	47	79
